Source: article PMC5368959, “Uricosuric targets of tranilast” (Pharmacology Research & Perspectives, 2017)
Several values for one entry are separate records, joined by “and”; a condition that tells them apart may be missing. Equal entries are not always repeated. Where two headings read alike, the source gives them in different places.

How the values were obtained:
[1] = target: T1, OAT1 (Homo sapiens, UniProt Q4U2R8); assay: [14C]-urate uptake by OAT1-expressing Xenopus oocytes; type: cell-based; details: drug 100 μmol/L
T1 sequence (Q4U2R8 1-563): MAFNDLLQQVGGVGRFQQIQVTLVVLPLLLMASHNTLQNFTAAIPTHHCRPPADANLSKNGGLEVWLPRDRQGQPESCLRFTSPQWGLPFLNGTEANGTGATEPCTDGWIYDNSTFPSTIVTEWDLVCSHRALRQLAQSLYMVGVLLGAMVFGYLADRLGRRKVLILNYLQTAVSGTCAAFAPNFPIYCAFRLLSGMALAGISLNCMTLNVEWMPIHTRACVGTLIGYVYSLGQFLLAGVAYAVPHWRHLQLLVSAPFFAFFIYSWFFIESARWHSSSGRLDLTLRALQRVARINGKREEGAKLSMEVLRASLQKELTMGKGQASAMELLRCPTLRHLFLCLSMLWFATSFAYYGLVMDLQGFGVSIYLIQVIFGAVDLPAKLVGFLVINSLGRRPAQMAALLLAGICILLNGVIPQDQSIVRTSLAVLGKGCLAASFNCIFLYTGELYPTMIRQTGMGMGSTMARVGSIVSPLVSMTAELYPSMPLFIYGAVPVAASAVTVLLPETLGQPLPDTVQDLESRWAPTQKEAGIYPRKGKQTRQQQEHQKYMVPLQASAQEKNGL
Source text: (§1) For uptake experiments, oocytes were washed four times with ND96 medium (pH 7.4) without pyruvate and gentamycin.

[2] = target: OAT10 (Homo sapiens, UniProt Q9Y226); assay: [14C]-nicotinate uptake by OAT10-expressing Xenopus oocytes; type: cell-based; details: for Inhibition of OAT10 [14C]-nicotinate uptake: drug 100 μmol/L
Method: as §1
Chloride ion‐dependence was also assessed; in 0 Cl^− bath, NaCl was replaced by Na‐gluconate (Na‐Gluc), KCl by K‐gluconate (K‐Gluc), MgCl2 by Mg‐gluconate, and CaCl2 by Ca‐gluconate. […] Data are mean ± S.E. with n = 12–15.

[3] = target: T2, URAT1 (Homo sapiens, UniProt Q96S37); assay: [14C]-urate uptake by URAT1-expressing Xenopus oocytes; type: cell-based; details: for IC50: 40 μmol/L urate
T2 sequence (Q96S37 1-553): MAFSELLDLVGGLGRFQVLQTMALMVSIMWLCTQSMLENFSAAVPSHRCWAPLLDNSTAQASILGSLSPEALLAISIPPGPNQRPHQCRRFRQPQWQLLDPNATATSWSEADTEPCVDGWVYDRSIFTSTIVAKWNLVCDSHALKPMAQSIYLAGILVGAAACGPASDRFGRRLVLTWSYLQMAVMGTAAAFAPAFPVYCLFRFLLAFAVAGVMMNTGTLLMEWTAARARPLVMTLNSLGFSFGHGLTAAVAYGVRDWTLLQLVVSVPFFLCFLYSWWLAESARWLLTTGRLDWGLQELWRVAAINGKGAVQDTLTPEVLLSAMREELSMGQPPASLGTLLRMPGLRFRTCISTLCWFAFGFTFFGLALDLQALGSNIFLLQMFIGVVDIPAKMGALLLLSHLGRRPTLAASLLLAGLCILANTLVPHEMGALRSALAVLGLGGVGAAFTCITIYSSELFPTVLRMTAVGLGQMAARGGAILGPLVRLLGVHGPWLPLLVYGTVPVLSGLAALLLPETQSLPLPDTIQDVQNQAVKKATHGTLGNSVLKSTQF
Source text: as §1

[4] = target: T2, URAT1; assay: [14C]-nicotinate uptake by URAT1-expressing Xenopus oocytes; type: cell-based
Source text: as §1
Data are mean ± S.E. with n = 12–15.

[5] = tested on: inflammation induced by monosodium urate (MSU) crystals; parameters: method as in Serafini and Emerling 2010; details: ref Serafini and Emerling 2010; cited from earlier work
[6] = parameters: method as in Sundy and Kitt 2010; details: at least partially due to uricosuric effects; ref Sundy and Kitt 2010; cited from earlier work
[7] = PZA-preloaded oocytes, read-out: IC50, OAT10-mediated [14C]-nicotinate/PZA exchange

OAT10, sequence (Q9Y226 whole entry): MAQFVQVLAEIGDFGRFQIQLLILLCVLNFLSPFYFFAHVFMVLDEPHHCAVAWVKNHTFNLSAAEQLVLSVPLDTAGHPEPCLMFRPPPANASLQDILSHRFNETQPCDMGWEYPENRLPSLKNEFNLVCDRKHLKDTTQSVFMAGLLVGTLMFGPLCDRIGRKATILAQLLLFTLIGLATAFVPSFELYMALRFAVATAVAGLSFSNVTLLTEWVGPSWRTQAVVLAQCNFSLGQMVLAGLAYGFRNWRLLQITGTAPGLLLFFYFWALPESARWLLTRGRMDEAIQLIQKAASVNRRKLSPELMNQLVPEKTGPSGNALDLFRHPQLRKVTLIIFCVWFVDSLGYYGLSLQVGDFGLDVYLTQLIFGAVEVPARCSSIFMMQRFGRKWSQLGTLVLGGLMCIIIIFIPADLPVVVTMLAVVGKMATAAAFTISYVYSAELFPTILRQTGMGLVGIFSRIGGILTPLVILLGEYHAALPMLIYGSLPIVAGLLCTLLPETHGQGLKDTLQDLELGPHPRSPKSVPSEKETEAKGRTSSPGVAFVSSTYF

Compound	Inhibition of OAT1-mediated urate uptake [1]	IC50 [2, 7]	Inhibition of OAT10 [14C]-nicotinate uptake [2]	Inhibition of URAT1-mediated [14C]-urate/PZA or /nicotinate exchange [3]	Reversibility of URAT1 inhibition [3]	URAT1 urate transport inhibition after washing and removal of inhibitor [3]	Sensitivity of URAT1-mediated [14C]-nicotinate uptake to drug ([4]; data not shown)	Effect on inflammation induced by MSU crystals in vivo [5]	IC50 ([4]; PZA-preloaded oocytes, 40 μmol/L nicotinate, read-out: IC50, URAT1-mediated [14C]-nicotinate uptake ([14C]-nicotinate/PZA exchange))	Effect on SUA in healthy human subjects [6]	IC50 ([2]; without preloading, data not shown, read-out: IC50, OAT10-mediated [14C]-nicotinate uptake)	Vmax of URAT1-mediated urate uptake [3]	mode of inhibition of URAT1-mediated urate transport [3]	Ki ([3]; Eadie-Hofstee analysis, read-out: inhibition constant (Ki) for URAT1-mediated urate uptake)	IC50 ([3]; IC50, URAT1-mediated [14C]-urate/PZA or [14C]-urate/nicotinate exchange, oocytes preloaded with nicotinate (Fig. 1E), 1 h)	IC50 ([3]; uptake in the absence of PZA or nicotinate preloading, data not shown, read-out: IC50, basal URAT1-mediated [14C]-urate uptake)
CCc1oc2ccccc2c1C(=O)c1cc(Br)c(O)c(Br)c1 [benzbromarone]	effectively inhibited	~22.8 µM	inhibited	efficiently inhibited	not reversible	substantially inhibited	–	–	–	–	–	–	–	–	–	–
CCCN(CCC)S(=O)(=O)c1ccc(C(=O)O)cc1 [probenecid]	–	–	–	efficiently inhibited	not reversible	–	very sensitive	–	–	–	–	–	–	–	–	–
COc1ccc(C=CC(=O)Nc2ccccc2C(=O)O)cc1OC [tranilast, N‐(3,4‐dimethoxycinnamoyl) anthranilic acid]	effectively inhibited	~43.1 µM	inhibited	–	–	almost no inhibition	–	suppresses inflammation	~190 µM and 190 µM and > 185 µM	potent reduction in SUA	~42 µM	120.1 pmoles/oocyte/h and 63.5 pmoles/oocyte/h	noncompetitive inhibition (mixed)	21.3 ± 2.2 µM	21 µM and ~21 µM	~20 µM
